In BigSolDB 2.1:

NC(=O)N1c2ccccc2CC(=O)c2ccccc21
solubility (mole fraction)
Conditions	in DMAc	in DMF	in DMSO	in NMP	in transcutol	in water
288.15 K	0.0256	0.0202	0.0312	0.0346	0.00418	5.42e-06
293.15 K	0.0189	0.0212	0.0339	0.0358	0.00437	5.85e-06
298.15 K	0.0205	0.0174	0.0367	0.0369	0.00456	6.3e-06
303.15 K	0.0222	0.0183	0.0259	0.038	0.00475	6.74e-06
308.15 K	0.0239	0.0193	0.0285	0.0335	0.00495	7.2e-06
